± gives the standard deviation of the averaged measurements.
Key:
Assay in all cases: level (log10 ratio to DMSO vehicle control); higher = higher biomarker level / cell amount than vehicle control
Conditions in all cases: in DMSO
Hexafluoroglutaric acid = compound: O=C(O)C(F)(F)C(F)(F)C(F)(F)C(=O)O [Hexafluoroglutaric acid]
Method: (§1)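 BioMAP Diversity Plus panel of 12 human primary cell co-culture systems (3C, 4H, LPS, SAg, BT, BF4T, BE3C, CASM3C, HDF3CGF, KF3CT, MyoF, Mphg). Compounds were added 1 h before stimulation and left for 24 h (MyoF 48 h; BT 72 h for soluble read-outs or 6 d for IgG). Biomarkers were read by ELISA, cytotoxicity by SRB, PBMC viability and proliferation by Alamar Blue. Each well value was divided by the mean of 8 DMSO control wells on the same plate and log10 transformed; duplicate blinded samples were tested at 4 concentrations.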

[1] = compound: O=C(O)C(F)(F)C(F)(F)C(F)(F)C(F)(F)C(F)(F)C(F)(F)C(F)(F)C(F)(F)C(F)(F)C(F)(F)C(F)(F)C(F)(F)F [Perfluorotridecanoic acid]
Method: as §1

[2] = compound: O=C(O)CCC(F)(F)C(F)(F)C(F)(F)F [3:3 Fluorotelomer carboxylic acid]
Method: as §1

[3] = compound: O=P(O)(O)CCC(F)(F)C(F)(F)C(F)(F)C(F)(F)C(F)(F)C(F)(F)C(F)(F)C(F)(F)F [((Perfluorooctyl)ethyl)phosphonic acid]
Method: as §1

[4] = compound: O=S(=O)(O)C(F)(F)C(F)(F)C(F)(F)C(F)(F)C(F)(F)C(F)(F)C(F)(F)C(F)(F)F [Potassium perfluorooctanesulfonate]
Method: as §1

[5] = compound: OCC(F)(F)C(F)(F)C(F)(F)C(F)(F)C(F)(F)C(F)F [1H,1H,7H-Dodecafluoro-1-heptanol]
Method: as §1

| Test System | level (log10) (Hexafluoroglutaric acid; 6700 nM) | level (log10) (Hexafluoroglutaric acid; 20000 nM) | level (log10) (Hexafluoroglutaric acid; 60000 nM) | level (log10) ([1]; 1500 nM) | level (log10) ([1]; 4400 nM) | level (log10) ([1]; 13000 nM) | level (log10) ([1]; 40000 nM) | level (log10) ([2]; 6700 nM) | level (log10) ([2]; 20000 nM) | level (log10) ([2]; 60000 nM) | level (log10) ([3]; 6700 nM) | level (log10) ([3]; 20000 nM) | level (log10) ([3]; 60000 nM) | level (log10) ([4]; 6700 nM) | level (log10) ([4]; 20000 nM) | level (log10) ([4]; 60000 nM) | level (log10) ([5]; 6700 nM) | level (log10) ([5]; 20000 nM) | level (log10) ([5]; 60000 nM) |
| --- | --- | --- | --- | --- | --- | --- | --- | --- | --- | --- | --- | --- | --- | --- | --- | --- | --- | --- | --- |
| KF3CT:CD54/ICAM-1 | -0.0045 ± 0.00071 | -0.014 ± 0.0057 | -0.0015 ± 0.044 | -0.03 ± 0.013 | -0.019 | -0.0285 ± 0.026 | 0.015 ± 0.017 | -0.0055 ± 0.0092 | -0.008 ± 0.0014 | 0.001 ± 0.028 | 0.019 ± 0.034 | 0.013 ± 0.018 | -0.0055 ± 0.049 | -0.0165 ± 0.021 | 0.0075 ± 0.011 | 0.002 ± 0.027 | -0.002 ± 0.016 | -0.0115 ± 0.0064 | 0.003 ± 0.017 |
| HDF3CGF:Collagen III | -0.0065 ± 0.015 | -0.0275 ± 0.00071 | -0.0125 ± 0.00071 | -0.057 ± 0.083 | -0.27 ± 0.037 | -0.261 ± 0.034 | -0.224 ± 0.078 | -0.012 ± 0.017 | -0.007 ± 0.025 | 0.0245 ± 0.054 | -0.119 ± 0.011 | -0.193 | -0.281 ± 0.029 | -0.013 ± 0.0099 | -0.0525 ± 0.042 | -0.106 ± 0.017 | -0.002 ± 0.018 | -0.0065 ± 0.0078 | 0.0145 ± 0.015 |
| MyoF:Collagen I | -0.003 ± 0.013 | -0.0005 ± 0.016 | 0.011 ± 0.0014 | -0.0045 ± 0.019 | -0.0115 ± 0.016 | -0.016 ± 0.025 | -0.213 ± 0.037 | -0.0005 ± 0.037 | 0.0095 ± 0.0035 | 0.0255 ± 0.026 | -0.021 ± 0.0014 | -0.014 ± 0.0057 | -0.009 ± 0.035 | -0.0145 ± 0.023 | -0.0095 ± 0.013 | 0.0075 ± 0.021 | 0.0055 ± 0.012 | -0.0175 ± 0.018 | 0.003 ± 0.023 |
| CASM3C:CXCL9/MIG | -0.0195 ± 0.019 | -0.02 ± 0.0085 | 0.022 ± 0.033 | 0.013 ± 0.044 | -0.006 ± 0.017 | -0.054 ± 0.018 | -0.0405 ± 0.054 | 0.004 ± 0.0028 | 0.008 ± 0.0099 | 0.002 | 0.0115 ± 0.011 | 0.019 ± 0.028 | 0.041 ± 0.03 | 0.015 ± 0.0071 | 0.012 ± 0.016 | 0.09 ± 0.027 | 0.002 ± 0.0071 | 0.007 ± 0.0014 | 0.0195 ± 0.005 |
| CASM3C:LDLR | -0.009 ± 0.0099 | -0.0175 ± 0.026 | -0.015 ± 0.014 | -0.001 ± 0.013 | 0.013 ± 0.02 | 0.0105 ± 0.025 | -0.021 ± 0.0028 | -0.0165 ± 0.00071 | -0.0105 ± 0.0035 | 0.011 ± 0.027 | -0.0075 ± 0.0021 | -0.005 ± 0.0042 | 0.0505 ± 0.039 | 0.021 ± 0.0014 | 0.0275 ± 0.019 | -0.0205 ± 0.036 | 0.0045 ± 0.05 | -0.0135 ± 0.028 | 0.014 ± 0.024 |
| lMphg:IL-1alpha | -0.004 ± 0.0057 | -0.0095 ± 0.023 | -0.022 ± 0.031 | -0.0415 ± 0.0035 | -0.0175 ± 0.0078 | -0.0105 ± 0.052 | -0.0015 ± 0.0092 | -0.0005 ± 0.11 | 0 ± 0.057 | 0.028 ± 0.059 | -0.014 ± 0.0099 | -0.0245 ± 0.025 | 0.02 ± 0.0042 | -0.003 ± 0.028 | 0.0235 ± 0.015 | 0.0125 ± 0.012 | -0.0255 ± 0.056 | -0.0275 ± 0.079 | -0.0735 ± 0.18 |
| CASM3C:HLA-DR | 0.0165 ± 0.049 | -0.015 ± 0.045 | 0.0055 ± 0.019 | 0.0015 ± 0.0092 | -0.0285 ± 0.035 | -0.0385 ± 0.013 | -0.085 ± 0.062 | 0.007 ± 0.0085 | 0.006 ± 0.023 | -0.009 ± 0.028 | -0.0265 ± 0.012 | -0.048 | -0.03 ± 0.081 | -0.0015 ± 0.0021 | -0.035 ± 0.028 | -0.0235 ± 0.054 | -0.0045 ± 0.03 | 0.0075 ± 0.0064 | 0.0045 ± 0.0021 |
| KF3CT:PAI-I | -0.004 ± 0.0042 | -0.0005 ± 0.005 | 0.0045 ± 0.0092 | -0.006 ± 0.028 | -0.0155 ± 0.015 | -0.0135 ± 0.023 | -0.052 ± 0.027 | -0.009 ± 0.031 | -0.0125 ± 0.0021 | -0.004 ± 0.0071 | -0.037 ± 0.035 | -0.055 ± 0.02 | -0.0595 ± 0.03 | -0.044 ± 0.027 | -0.053 ± 0.0071 | -0.125 ± 0.024 | -0.0075 ± 0.0092 | -0.0035 ± 0.011 | 0 ± 0.0042 |
| CASM3C:M-CSF | -0.0135 ± 0.022 | -0.0185 ± 0.033 | 0.018 ± 0.018 | 0.0075 ± 0.054 | 0.0255 ± 0.005 | 0.0565 ± 0.039 | 0.095 ± 0.0085 | -0.0055 ± 0.037 | -0.02 ± 0.018 | 0.0185 ± 0.028 | -0.0145 ± 0.011 | -0.008 ± 0.011 | 0.045 ± 0.04 | 0.003 ± 0.028 | 0.016 ± 0.016 | -0.007 ± 0.064 | -0.0045 ± 0.0035 | -0.0185 ± 0.0035 | 0.0145 ± 0.039 |
| HDF3CGF:CD54/ICAM-1 | 0.001 ± 0.018 | 0.0035 ± 0.013 | 0.004 ± 0.016 | -0.016 ± 0.0071 | -0.0075 ± 0.015 | -0.0135 ± 0.064 | -0.0275 ± 0.12 | -0.0025 ± 0.0078 | -0.0135 ± 0.015 | -0.017 ± 0.0028 | -0.009 ± 0.0099 | -0.0235 ± 0.015 | -0.0625 ± 0.028 | -0.0015 ± 0.0064 | -0.002 ± 0.014 | -0.0525 ± 0.012 | 0.006 ± 0.0085 | 0.0015 ± 0.012 | -0.003 ± 0.0099 |
| MyoF:CD106/VCAM-1 | -0.0145 ± 0.021 | -0.023 ± 0.0099 | -0.006 ± 0.0014 | -0.0105 ± 0.0078 | 0.01 ± 0.0071 | -0.003 ± 0.0085 | 0.0035 ± 0.033 | -0.0005 ± 0.012 | -0.016 ± 0.0085 | -0.013 ± 0.0085 | -0.013 ± 0.027 | -0.0105 ± 0.015 | -0.079 ± 0.03 | 0.002 ± 0.027 | 0.0045 ± 0.029 | 0.0015 ± 0.019 | -0.014 ± 0.021 | -0.0115 ± 0.0092 | -0.019 ± 0.016 |
| MyoF:PAI-I | -0.0025 ± 0.021 | -0.0035 ± 0.015 | 0.003 | 0.013 ± 0.013 | -0.002 | -0.0035 ± 0.00071 | 0.012 ± 0.0085 | -0.0055 ± 0.005 | -0.003 | 0.003 ± 0.0042 | -0.0215 ± 0.0092 | -0.0075 ± 0.0064 | -0.0285 ± 0.035 | 0.003 ± 0.025 | -0.006 ± 0.0014 | -0.0065 ± 0.0064 | -0.0045 ± 0.013 | -0.0015 ± 0.011 | 0.007 ± 0.0057 |
| CASM3C:CD87/uPAR | -0.001 ± 0.014 | -0.0185 ± 0.033 | -0.0075 ± 0.0035 | 0.0185 ± 0.011 | 0.028 ± 0.0014 | -0.01 ± 0.013 | 0.0015 ± 0.019 | -0.01 ± 0.0071 | 0.002 ± 0.011 | -0.01 ± 0.018 | -0.022 ± 0.013 | -0.0345 ± 0.015 | -0.041 ± 0.014 | -0.0025 ± 0.012 | -0.016 ± 0.0014 | -0.0095 ± 0.011 | -0.001 ± 0.016 | 0.0035 ± 0.021 | -0.0055 ± 0.023 |
| HDF3CGF:M-CSF | -0.0015 ± 0.013 | -0.006 ± 0.033 | -0.0285 ± 0.029 | 0.016 | 0.0145 ± 0.049 | -0.029 ± 0.078 | -0.0295 ± 0.13 | 0.002 ± 0.0099 | -0.004 ± 0.0042 | 0.001 ± 0.013 | 0.0235 ± 0.016 | -0.009 ± 0.0028 | -0.113 ± 0.016 | 0.0165 ± 0.0078 | 0.012 ± 0.0014 | -0.151 ± 0.018 | -0.0025 ± 0.018 | -0.0055 ± 0.00071 | -0.0045 ± 0.0035 |
| MyoF:SRB | 0.0015 ± 0.00071 | -0.002 ± 0.0085 | -0.0045 ± 0.0092 | 0.0015 ± 0.0064 | 0.002 ± 0.0014 | 0.0005 ± 0.0021 | 0.002 ± 0.0042 | 0.0005 ± 0.0021 | 0 ± 0.0028 | -0.0065 ± 0.012 | 0.002 ± 0.0042 | 0.0025 ± 0.0064 | 0.004 | -0.001 ± 0.011 | -0.0085 ± 0.0035 | -0.0145 ± 0.016 | 0.001 ± 0.0085 | -0.0025 ± 0.00071 | -0.007 ± 0.0085 |

Reference: the supplement of paper PMC10331698
